These results are taken from patent US12522595B2, “Bicyclic ether O-glycoprotein-2-acetamido-2-deoxy-3-D-glucopyranosidase inhibitors” (BIOGEN MA INC., priority 2019, dated 2026).

Structures are written as SMILES.

The assay has as its target T1, Recombinant full length human OGA enzyme (Homo sapiens, UniProt O60502).
T1 construct: Recombinant full length human OGA enzyme was purchased from Origene; purchased Origene
T1 sequence (O60502 1-916): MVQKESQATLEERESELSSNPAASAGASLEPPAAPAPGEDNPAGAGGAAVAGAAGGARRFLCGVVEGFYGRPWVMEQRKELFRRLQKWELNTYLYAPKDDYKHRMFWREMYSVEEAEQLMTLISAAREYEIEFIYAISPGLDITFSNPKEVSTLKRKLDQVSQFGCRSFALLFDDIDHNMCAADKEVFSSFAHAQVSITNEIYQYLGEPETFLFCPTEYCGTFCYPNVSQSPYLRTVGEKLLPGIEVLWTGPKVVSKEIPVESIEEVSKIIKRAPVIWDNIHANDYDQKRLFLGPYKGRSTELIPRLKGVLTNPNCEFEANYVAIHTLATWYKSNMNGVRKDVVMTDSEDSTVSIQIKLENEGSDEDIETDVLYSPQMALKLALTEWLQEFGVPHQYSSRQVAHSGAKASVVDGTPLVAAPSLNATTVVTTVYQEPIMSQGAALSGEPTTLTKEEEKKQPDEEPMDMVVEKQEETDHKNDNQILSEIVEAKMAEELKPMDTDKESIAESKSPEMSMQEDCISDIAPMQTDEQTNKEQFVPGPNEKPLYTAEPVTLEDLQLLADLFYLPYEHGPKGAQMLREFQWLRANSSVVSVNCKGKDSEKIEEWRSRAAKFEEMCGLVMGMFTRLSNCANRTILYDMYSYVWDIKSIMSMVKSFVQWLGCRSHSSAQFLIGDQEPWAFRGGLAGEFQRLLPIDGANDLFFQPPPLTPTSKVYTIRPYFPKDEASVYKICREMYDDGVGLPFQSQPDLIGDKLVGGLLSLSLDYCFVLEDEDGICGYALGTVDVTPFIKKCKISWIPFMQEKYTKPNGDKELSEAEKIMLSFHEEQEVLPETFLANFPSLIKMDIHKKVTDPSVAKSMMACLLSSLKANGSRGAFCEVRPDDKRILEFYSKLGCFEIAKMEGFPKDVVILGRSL
Kind of assay: OGA enzyme inhibition biochemical assay. Conditions: 1 nM OGA, 100 μM 4-MUGlcNAc (Km), pH 6.4, 90 minutes at room temperature, 10-point dose-response from 20 μM. The procedure: N-(5-(((2S,4R)-4-([1,2,4]triazolo[4,3-a]pyrazin-3-yloxy)-2-methylpyrrolidin-1-yl)methyl)-4-fluorothiazol-2-yl)acetamide: The title compound was prepared in an analogous manner as Example 172 from 3-bromo-[1,2,4]triazolo[4,3-a]pyrazine. LCMS (ESI): [M+H] 392. ^1H NMR (600 MHz, CHLOROFORM-d) δ 10.75 (br s, 1H), 9.04 (s, 1H), 9.03 (s, 1H), 7.24 (s, 1H), 4.99-5.06 (m, 1H), 4.01 (d, J=14.49 Hz, 1H), 3.64 (d, J=14.67 Hz, 1H), 3.40 (d, J=11.55 Hz, 1H), 2.75 (dd, J=5.78, 11.46 Hz, 1H), 2.61-2.72 (m, 2H), 2.32 (s, 4H), 1.84-1.92 (m, 1H), 1.30 (d, J=5.87 Hz, 4H). ^19F NMR (565 MHz, CHLOROFORM-d) 6-115.92 (br s, 1F). OGA Enzyme Inhibition Biochemical Assay
Recombinant full length human OGA enzyme was purchased from Origene. 4-MUGlCNAc substrate was purchased from Sigma. All other reagents were purchased from Sigma or Fisher. Assay buffer consists of the McIlvaine buffer system, pH 6.4 (0.2M Na2HPO4 mixed with 0.1M citric acid) and 0.01% BSA. Reactions consist of 1 nM OGA, 100 μM 4-MUGlcNAc (Km), and compound in a final volume of 10 μl. Reactions were incubated for 90 minutes at room temperature and quenched with 40 μl of 3M glycine, pH 10 and read on a Perkin Elmer Envision plate reader (Ex: 355 nm/Em: 460 nm). Compounds were tested with a 10-point dose-response starting from 20 μM with a 4-fold dilution. Data, as presented in Table 1 below, was fit using GraphPad Prism using a 4-parameter fit with variable slope.

As to `CC(=O)Nc1ncc(CN2C[C@H](Oc3nccc4oc(C(N)=O)cc34)C[C@@H]2C)s1` [Example 25, 4-(((3R,5S)-1-((2-acetamidothiazol-5-yl)methyl)-5-methylpyrrolidin-3-yl)oxy)furo[3,2-c]pyridine-2-carboxamide], the IC50 (in general, the midpoint of a concentration-inhibition curve) came to 2.8 nM.

Consider `CC(=O)Nc1ncc(CN2C[C@H](Oc3nccc4ccccc34)C[C@@H]2C)s1` [Example 26, N-(5-(((2S,4R)-4-(isoquinolin-1-yloxy)-2-methylpyrrolidin-1-yl)methyl)thiazol-2-yl)acetamide], for which the IC50 turned out to be 4.5 nM.

With `CC(=O)Nc1ncc(CN2C[C@H](Oc3nccc4cc(F)ccc34)C[C@@H]2C)s1` [Example 27, N-(5-(((2S,4R)-4-((6-fluoroisoquinolin-1-yl)oxy)-2-methylpyrrolidin-1-yl)methyl)thiazol-2-yl)acetamide], the IC50 amounted to 4 nM.

On to `CC(=O)Nc1ncc(CN2C[C@H](Oc3nccn4nc(C(F)(F)F)cc34)C[C@@H]2C)s1` [Example 28, N-(5-(((2S,4R)-2-methyl-4-((2-(trifluoromethyl)pyrazolo[1,5-a]pyrazin-4-yl)oxy)pyrrolidin-1-yl)methyl)thiazol-2-yl)acetamide], for which the IC50 was determined as 5.4 nM.

For `CC(=O)Nc1ncc(CN2C[C@H](Oc3nc4ccccc4cc3C)C[C@@H]2C)s1` [Example 29, N-(5-(((2S,4R)-2-methyl-4-((3-methylquinolin-2-yl)oxy)pyrrolidin-1-yl)methyl)thiazol-2-yl)acetamide], the IC50 was 5.5 nM.

Regarding `CC(=O)Nc1ncc(CN2C[C@H](Oc3nccc4ccc(C)cc34)C[C@@H]2C)s1` [Example 30, N-(5-(((2S,4R)-2-methyl-4-((7-methylisoquinolin-1-yl)oxy)pyrrolidin-1-yl)methyl)thiazol-2-yl)acetamide], the IC50 was found to be 7.9 nM.

Regarding `CC(=O)Nc1ncc(CN2C[C@H](Oc3cc4ccccc4nc3C#N)C[C@@H]2C)s1` [Example 31, N-(5-(((2S,4R)-4-((2-cyanoquinolin-3-yl)oxy)-2-methylpyrrolidin-1-yl)methyl)thiazol-2-yl)acetamide], the IC50 turned out to be 9.7 nM.

For the compound `CC(=O)Nc1ncc(CN2C[C@H](Oc3nc4c(cc3C#N)CCCC4)C[C@@H]2C)s1` [Example 32, N-(5-(((2S,4R)-4-((3-cyano-5,6,7,8-tetrahydroquinolin-2-yl)oxy)-2-methylpyrrolidin-1-yl)methyl)thiazol-2-yl)acetamide], the IC50 was 11 nM.

On to `CC(=O)Nc1ncc(CN2C[C@H](Oc3ccnc4c3CCCC4)C[C@@H]2C)s1` [Example 33, N-(5-(((2S,4R)-2-methyl-4-((5,6,7,8-tetrahydroquinolin-4-yl)oxy)pyrrolidin-1-yl)methyl)thiazol-2-yl)acetamide], for which the 50% inhibitory concentration (IC50) came to 16 nM.

For the compound `CC(=O)Nc1ncc(CN2C[C@H](Oc3ccnc4nc(C(F)(F)F)nn34)C[C@@H]2C)s1` [Example 34, N-(5-(((2S,4R)-2-methyl-4-((2-(trifluoromethyl)-[1,2,4]triazolo[1,5-a]pyrimidin-7-yl)oxy)pyrrolidin-1-yl)methyl)thiazol-2-yl)acetamide], the half-inhibitory concentration (IC50) came to 22 nM.

Turning to `CC(=O)Nc1ncc(CN2C[C@H](Oc3ncnc4cc(F)c(F)cc34)C[C@@H]2C)s1` [Example 35, N-(5-(((2S,4R)-4-((6,7-difluoroquinazolin-4-yl)oxy)-2-methylpyrrolidin-1-yl)methyl)thiazol-2-yl)acetamide], the half-maximal inhibitory concentration (IC50) stood at 110 nM.

With `CC(=O)Nc1ncc(CN2C[C@H](Oc3ncnc4sc(C(F)F)nc34)C[C@@H]2C)s1` [Example 36], the IC50 came to 780 nM.

On to `CC(=O)Nc1ncc(CN2C[C@H](Oc3nc4ccccc4cc3C#N)C[C@@H]2C)s1` [Example 37, N-(5-(((2S,4R)-4-((3-cyanoquinolin-2-yl)oxy)-2-methylpyrrolidin-1-yl)methyl)thiazol-2-yl)acetamide], for which the half-inhibitory concentration (IC50) was 16 nM.

As for `CC(=O)Nc1ncc(CN2C[C@H](Oc3c(Cl)ccn4ccnc34)C[C@@H]2C)s1` [Example 38, N-(5-(((2S,4R)-4-((7-chloroimidazo[1,2-a]pyridin-8-yl)oxy)-2-methylpyrrolidin-1-yl)methyl)thiazol-2-yl)acetamide], the half-inhibitory concentration (IC50) was below 1 nM.

As to `CC(=O)Nc1ncc(CN2C[C@H](Oc3cc4nccn4cn3)C[C@@H]2C)s1` [Example 39, N-(5-(((2S,4R)-4-(imidazo[1,2-c]pyrimidin-7-yloxy)-2-methylpyrrolidin-1-yl)methyl)thiazol-2-yl)acetamide], the IC50 was below 1 nM.

Consider `CC(=O)Nc1ncc(CN2C[C@H](Oc3cc4nc(C)cn4cn3)C[C@@H]2C)s1` [Example 40, N-(5-(((2S,4R)-2-methyl-4-((2-methylimidazo[1,2-c]pyrimidin-7-yl)oxy)pyrrolidin-1-yl)methyl)thiazol-2-yl)acetamide], for which the half-maximal inhibitory concentration (IC50) was below 1 nM.

As to `CC(=O)Nc1ncc(CN2C[C@H](Oc3ccn4ccnc4c3)C[C@@H]2C)s1` [Example 42, N-(5-(((2S,4R)-4-(imidazo[1,2-a]pyridin-7-yloxy)-2-methylpyrrolidin-1-yl)methyl)thiazol-2-yl)acetamide], the half-inhibitory concentration (IC50) is below 1 nM.

Take `CC(=O)Nc1nc(F)c(CN2C[C@H](Oc3ccn4ccnc4c3)C[C@@H]2C)s1` [Example 43, N-(4-fluoro-5-(((2S,4R)-4-(imidazo[1,2-a]pyridin-7-yloxy)-2-methylpyrrolidin-1-yl)methyl)thiazol-2-yl)acetamide]: the IC50 is below 1 nM.

With `CC(=O)Nc1ncc(CN2C[C@H](Oc3ccc4nn(C)cc4c3)C[C@@H]2C)s1` [Example 44, N-(5-(((2S,4R)-2-methyl-4-((2-methyl-2H-indazol-5-yl)oxy)pyrrolidin-1-yl)methyl)thiazol-2-yl)acetamide], the IC50 was below 1 nM.

As for `CC(=O)Nc1ncc(CN2C[C@H](Oc3ccc4ncoc4c3)C[C@@H]2C)s1` [Example 45, N-(5-(((2S,4R)-4-(benzo[d]oxazol-6-yloxy)-2-methylpyrrolidin-1-yl)methyl)thiazol-2-yl)acetamide], the IC50 is below 1 nM.

As for `CC(=O)Nc1ncc(CN2C[C@H](Oc3ncnc4occc34)C[C@@H]2C)s1` [Example 46, N-(5-(((2S,4R)-4-(furo[2,3-d]pyrimidin-4-yloxy)-2-methylpyrrolidin-1-yl)methyl)thiazol-2-yl)acetamide], the half-inhibitory concentration (IC50) was 1.1 nM.

As for `CC(=O)Nc1nc(F)c(CN2C[C@H](Oc3ccnc4ccoc34)C[C@@H]2C)s1` [Example 47, N-(4-fluoro-5-(((2S,4R)-4-(furo[3,2-b]pyridin-7-yloxy)-2-methylpyrrolidin-1-yl)methyl)thiazol-2-yl)acetamide], the half-inhibitory concentration (IC50) is below 1 nM.

As to `CC(=O)Nc1ncc(CN2C[C@H](Oc3ccnc4ccoc34)C[C@@H]2C)s1` [Example 48, N-(5-(((2S,4R)-4-(furo[3,2-b]pyridin-7-yloxy)-2-methylpyrrolidin-1-yl)methyl)thiazol-2-yl)acetamide], the IC50 is below 1 nM.

Consider `CC(=O)Nc1nc(F)c(CN2C[C@H](Oc3ccn4nccc4c3)C[C@@H]2C)s1` [Example 49, N-(4-fluoro-5-(((2S,4R)-2-methyl-4-(pyrazolo[1,5-a]pyridin-5-yloxy)pyrrolidin-1-yl)methyl)thiazol-2-yl)acetamide], for which the half-inhibitory concentration (IC50) is below 1 nM.

For `CC(=O)Nc1nc(F)c(CN2C[C@H](Oc3ccc4nn(C)cc4c3)C[C@@H]2C)s1` [Example 50, N-(4-fluoro-5-(((2S,4R)-2-methyl-4-((2-methyl-2H-indazol-5-yl)oxy)pyrrolidin-1-yl)methyl)thiazol-2-yl)acetamide], the half-maximal inhibitory concentration (IC50) is below 1 nM.
